The results in this text go back to patent publication US20050182124A1, “Ester bacteriostat for stabilizing cosmetics” (VAMA FARMACOSMETICA S.r.l., priority 2004, published 2005).

In brackets after ≈: the same amount, converted by molar mass. Read-outs that look alike come from different tables or passages of the source.

Series [1] relates to Staphylococcus aureus. The experiment in a line: MIC (Minimal Inhibition Concentration) test on bacterial colonies. Type of series: cell-based. To be noted: read-out: MIC (Minimal Inhibition Concentration). As for the experimental part: (§1) With the purpose of evaluating the bacteriostatic activity of the bacteriostats of the invention, the following MIC (Minimal Inhibition Concentration) tests were carried out on bacterial colonies of “Pseudomonas aeruginosa” (Pa) and of “Staphylococcus aureus” (Sa), respectively with pure phenoxyethanol of formula (IV) and with phenoxyethanol ester of PCA of formula (V) of the invention.

Series [2] deals with Pseudomonas aeruginosa. The series is described as above. The class given is cell-based. To be noted: read-out: MIC (Minimal Inhibition Concentration). Here is the method:
as §1

Series [3] relates to skin. The series can be described thus: Patch test (finn chamber) for skin compatibility: primary irritation and allergic response. The following applies: 25 healthy volunteers; about 20 μg solid product on the back, finn chamber 48 hours; read 15 mins, 1 hr and 24 hrs after removal. The class given is in vivo, human. Here is the method: The skin compatibility of the bacteriostat according to the invention, in terms of anergic response and of primary Irritation. was tested with the following patch tests.
A panel of 25 healthy volunteers was subjected to the application onto the back of about 20 μg of solid product with the use of a “finn chamber” (patch test). After 48 hours the “finn chamber” was removed and the skin reactions after 15 mins, 1 hr and 24 hrs from removal were clinically evaluated.

Regarding `O=C1CCC(C(=O)OCCOc2ccccc2)N1` (stereo not shown) [PCA Ester, phenoxyethanol ester of PCA], the MIC in series [1] (Staphylococcus aureus (Sa)) and in series [2] (Pseudomonas aeruginosa (Pa)) was 1000 µg/mL (≈ 4.01 mM) each time. In series [3], the “skin irritation (primary irritation) in patch test” value is given as “not to be irritating”. Moreover, the “skin sensitization in patch test” value in series [3] was “did not sensitize the skin”.
With `OCCOc1ccccc1` [phenoxyethanol, 2-phenoxyethanol, reference compound], the MIC was found to be 6400 µg/mL (≈ 46.3 mM) in series [1] (Staphylococcus aureus) and 3200 µg/mL (≈ 23.2 mM) in series [2] (Pseudomonas aeruginosa). Further, the “skin irritation (primary irritation) in patch test” value in series [3] is “moderately irritating”.
